# Patent publication US20240025845A1, “METASTASIS-INHIBITING COMPOSITION OF NOVEL METHYLSULFONAMIDE DERIVATIVE COMPOUND” (KOREA RESEARCH INSTITUTE OF BIOSCIENCE AND BIOTECHNOLOGY, priority 2020, published 2024)
# Legend:
# [1] = tested on: angiogenesis; assay: chorioallantoic membrane (CAM) angiogenesis assay; format: in vivo; conditions: fertilized egg, 4 μg
# Description: In order to confirm whether angiogenesis was inhibited using the compound 1-46, which had high stability in vivo, among methylsulfonamide-based derivative compounds discovered as CSE1L inhibitors, a chorioallantoin membrane (CAM) was performed. First, the surface of the fertilized viable egg was wiped with 70% ethanol, incubated at 37° C. for 4 days, and 3 ml of albumin of the viable egg was extracted and then treated with the compound 1-46 at a concentration of 4 μg, and then it was observed whether angiogenesis was inhibited.
# [2] = tested on: human breast cancer cell line (MDA-MB-231); assay: MTT cytotoxicity assay; format: cell-based
# Description: (§1) In order to evaluate the cytotoxicity of the compound 1-1 according to the present invention, MTT assay was performed on a human breast cancer cell line (MDA-MB-231). Cells used in the experiment were all purchased from the American Type Culture Collection (ATCC). First, 1×10^5 MDA-MB-231 cells were divided into 200 vL of 5×10^3 cells in a 96-well plate using a DMEM medium added with 10% fetal bovine serum (FBS), […] and 50 U/ml penicillin while maintained at 37° C. under 5% CO2 air, and then incubated in a CO2 incubator for 24 hours. The purchased compound 1-1 of the present invention was treated at a concentration of 50 vM and incubated for 24 hours under the same culture conditions. After the incubation was completed, the culture medium was removed and 50 vL of 10 mg/mL MTT solution [3-(4,5-dimethylthiazol-2-yl)-2,5-diphenyltetrazolium bromide] (Sigma, St. Louis, MO, USA) was added per well and reacted at 37° C. for 4 hours. Subsequently, a supernatant was removed carefully so as to […] formazan crystals at the bottom, and 50 μL of dimethyl sulfoxide (DMSO) was added per well, and then shaken for 10 minutes, and an optical density (OD) at 590 nm was measured. […] The number of moved cells was quantified using an optical microscope (×100). […]
# [3] = mouse liver metabolic stability assay; format: in vitro ADME
# [4] = tested on: MDA-MB-231 cell lines; assay: transwell Matrigel invasion chamber assay; format: cell-based, human; conditions: MDA-MB-231, 10 and 20 vM, 20 hours, compared to control group
# Description: as §1
# [5] = tested on: MDA-MB-231 cells; assay: Wound healing assay (cancer cell movement); format: cell-based, human
# Description: as §1
# [6] = tested on: mouse breast cancer cell line 4T1; assay: orthotopic xenograft spontaneous metastasis mouse model (metastatic breast cancer); format: in vivo
# From the text: In order to test a metastasis-inhibiting effect of the compound 1-1, which was a CSE1L inhibiting compound, in a mouse model, the metastasis-inhibiting effect was confirmed using an orthotopic xenograft spontaneous metastasis model. First, a method of examining metastasis of cancer formed by subcutaneous transplantation of mouse breast cancer cell line 4T1 (murine breast cancer cell) to other tissues was used. Female 6-week-old nude mice (BALB/c) were used. To make solid cancer, the mouse breast cancer cell line 4T1 (1×10^5 murine breast cancer cells) was transplanted into the 4th Mammary Fat Pad of the mouse, and from 5 days later, the compound 1-1 was treated at 10 mg/kg and 50 mg/kg every day for 3 weeks, respectively. […] In addition, after 25 days, the mice were autopsied to confirm the number of cancer cells metastasizing to the lung. […] Through the evaluation of anti-metastasis efficacy using the metastasis breast cancer model, the metastasis-inhibiting efficacy of the compound 1-1 was confirmed through selective regulation of the CSE1L function by binding to the target protein CSE1L. Accordingly, a novel derivative was synthesized in order to secure a substance showing better activity than these substances.
# [7] = tested on: cancer cells; assay: real-time cell movement with Holomonitor device; format: cell-based
# [8] = target: T1, CSE1L (Homo sapiens, UniProt P55060); assay: thermal shift assay (TSA) in cells, remaining CSE1L by Western blot; format: binding; conditions: cells treated 10 vM, 24 hours; 42-60° C. for 5 minutes; vs DMSO
# T1 construct: endogenous in cells
# T1 sequence (P55060 1-971): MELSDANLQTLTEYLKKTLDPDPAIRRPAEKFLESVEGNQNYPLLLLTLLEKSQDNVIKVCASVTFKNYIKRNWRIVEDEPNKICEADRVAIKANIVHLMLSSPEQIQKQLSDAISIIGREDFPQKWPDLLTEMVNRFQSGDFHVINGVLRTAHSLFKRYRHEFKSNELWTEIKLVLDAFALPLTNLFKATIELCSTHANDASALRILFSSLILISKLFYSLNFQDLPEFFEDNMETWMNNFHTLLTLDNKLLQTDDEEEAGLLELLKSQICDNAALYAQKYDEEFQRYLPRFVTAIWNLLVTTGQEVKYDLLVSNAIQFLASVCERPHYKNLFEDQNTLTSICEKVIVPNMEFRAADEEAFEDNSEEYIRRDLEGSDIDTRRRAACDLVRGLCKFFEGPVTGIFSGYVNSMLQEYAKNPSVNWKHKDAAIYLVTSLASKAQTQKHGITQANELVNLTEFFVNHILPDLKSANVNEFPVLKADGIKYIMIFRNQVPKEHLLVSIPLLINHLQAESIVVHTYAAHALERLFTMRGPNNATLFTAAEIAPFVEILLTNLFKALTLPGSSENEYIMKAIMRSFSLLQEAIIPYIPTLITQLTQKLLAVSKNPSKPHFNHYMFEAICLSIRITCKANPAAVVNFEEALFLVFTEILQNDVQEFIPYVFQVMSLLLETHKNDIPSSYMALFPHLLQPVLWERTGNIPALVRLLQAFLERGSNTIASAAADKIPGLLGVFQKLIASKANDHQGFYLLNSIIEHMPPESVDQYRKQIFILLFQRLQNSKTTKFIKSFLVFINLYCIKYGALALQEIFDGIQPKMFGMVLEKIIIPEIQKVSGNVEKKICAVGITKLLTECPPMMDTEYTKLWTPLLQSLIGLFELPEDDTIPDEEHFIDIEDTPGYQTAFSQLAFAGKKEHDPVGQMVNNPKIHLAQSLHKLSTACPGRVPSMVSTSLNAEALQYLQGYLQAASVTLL
# From the text: A CSE1L protein was known as nuclear exportin 2, a type of nuclear exportin that played a role in moving importin-α from the intra-nucleus to the cytoplasm as a cargo protein of nuclear transport (Solsbacher, J.; Maurer, P.; Bischoff, F. R.; Schlenstedt, G. Mol. Cell. Biol. 1998, 18, 6805.). In general, importin-α and Ran-GTP, which were cargo proteins, bound to exportin CSE1L in the nucleus and transported to the cytoplasm through nuclear pores, and the obtained CSE1L-bound Ran-GTP protein was rapidly hydrolyzed to Ran GDP to have the form of a cargo free state (a state in which importin-ax was not bound). Through this series of processes, the protein played a role of substance transport. As another function, the CSE1L protein was particularly abundant in cancer cells or tissues, and reported to have roles and functions in metastasis, such as carcinogenesis, cancer cell movement, and cancer cell invasion, but since the exact mechanism has not been reported yet, it was intended to predict the interaction with a novel metastasis-targeting protein (CSE1L) and develop effective substances using molecular modeling tools. Based on a binding site of the previously identified fusarisetin compound and the target protein (CSE1L), a virtual search was conducted using about 1.5 million compound libraries (commercial focused libraries) to predict combinable compounds. […]
SMILES,angiogenesis inhibitory activity [1],"cytotoxicity (MTT) ([2]; MDA-MB-231, 10 to 100 vM)",metabolic stability [3] [%],number of invaded cancer cells [4],"cell movement of cancer cell line (wound healing) ([5]; MDA-MB-231, compared to control group, concentration not given)","cytotoxicity (MTT) ([2]; MDA-MB-231, 50 vM, 24 hours)","change in body weight (toxicity) ([6]; 10 mg/kg and 50 mg/kg every day for 3 weeks, compared to negative control group)","formation of cancer tissue in other organs (metastasis, bioluminescence) ([6]; 10 mg/kg and 50 mg/kg every day, vs control group)","volume and capacity of the tumors ([6]; 10 mg/kg and 50 mg/kg, drug treatment period (16 to 24 days))","number of cancer cells metastasizing to the lung ([6]; autopsy after 25 days, compared to control group)",invasion and movement of cancer cells in real time [7],amount of remaining CSE1L after heating (thermal stabilization) [8],"cell movement of cancer cell line (wound healing) ([5]; MDA-MB-231, 10 and 20 μM, 24 hours, compared to control group)"
NC(=O)CN(c1ccc(C(F)(F)F)cc1)S(=O)(=O)CCC(F)(F)F [Compound 1-46],excellent angiogenesis inhibitory activity,no cytotoxicity,91.4,significantly reduced,significantly reduced,,,,,,,,
NC(=O)CN(c1ccc(C(F)(F)F)cc1)S(=O)(=O)CC(F)(F)F [Compound 1-45],,,82.2,,,,,,,,,,
"CS(=O)(=O)N(CC(N)=O)c1ccc(C(Cl)(Cl)Cl)cc1 [Compound 1-1, 2-[N-methylsulfonyl-4-(trichloromethyl)anilino]acetamide]",,,89.8,significantly reduced,,no cytotoxicity,no change in body weight,showed a tendency to inhibit the formation of cancer tissue in other organs,not suppressed,significantly reduced,inhibited the invasion and movement of cancer cells,"not reduced, but continuously maintained through structural stabilization",significantly reduced
